Numbered stars: 1 amine (or outer) side, 2 acyl side, 3 side chain; on linkers, the order of the positions; unused ones are H or OH. Bridge positions count the residues as written; N and C are the ends. Square brackets hold non-standard residues; d marks the D form. Peptide text beside a SMILES is read from it. Trp(βS-Me,7-OMe) = COc1cccc2c([C@H](C)[C@H](N)C(=O)O)c[nH]c12; Ala(1-bicyclo(1.1.1)pentyl) = N[C@@H](CC12CC(C1)C2)C(=O)O; Achc(cis-1,4) = O=C([C@H]1CC[C@@H](N[*:1])CC1)[*:2]; Trp(4-Cl) = N[C@@H](Cc1c[nH]c2cccc(Cl)c12)C(=O)O; Trp(7-Cl) = N[C@@H](Cc1c[nH]c2c(Cl)cccc12)C(=O)O; X15 = C[C@H](c1ccc(O)cc1)[C@H](N[*:1])C(=O)[*:2]; Phe(4-CONH2) = NC(=O)c1ccc(C[C@H](N)C(=O)O)cc1; Phe(4-COOH) = N[C@@H](Cc1ccc(C(=O)O)cc1)C(=O)O; Trp(7-aza) = N[C@@H](Cc1c[nH]c2ncccc12)C(=O)O; Phe(4-CH2NH2) = NCc1ccc(C[C@H](N)C(=O)O)cc1; Pip(5R-OH) = O=C(O)[C@@H]1CC[C@@H](O)CN1; X4 = O=C([C@H]1C=C[C@@H](N[*:1])C1)[*:2]; αMeW = C[C@](N)(Cc1c[nH]c2ccccc12)C(=O)O; X1 = O=C([C@@H]1CC[C@H](N[*:1])C1)[*:2]; 2Nal = N[C@@H](Cc1ccc2ccccc2c1)C(=O)O; Pip(4-aza) = O=C(O)[C@@H]1CNCCN1; hPhe = N[C@@H](CCc1ccccc1)C(=O)O; 3Pal = N[C@@H](Cc1cccnc1)C(=O)O; 4Pal = N[C@@H](Cc1ccncc1)C(=O)O; NMeE = CN[C@@H](CCC(=O)O)C(=O)O; dHyp = O=C(O)[C@H]1C[C@H](O)CN1; NMeDab = CN[C@@H](CCN)C(=O)O; Dap(Me) = CNC[C@H](N)C(=O)O; NEtAla = CCN[C@@H](C)C(=O)O; αMeS = C[C@](N)(CO)C(=O)O; NMeA = CN[C@@H](C)C(=O)O; Nle = CCCC[C@H](N)C(=O)O; Dap = NC[C@H](N)C(=O)O; Sar = CNCC(=O)O
Columns and labels:
[1] = target: T1, TNFα-induced NF-κB signal transduction pathway (TNFR1 signaling) in THP-1 cells (Homo sapiens, UniProt P19438); test: THP-1 Lucia NF-κB reporter cell assay, inhibition of TNFα-induced NF-κB signaling; assay type: cell-based; details: THP-1 NF-κB Lucia reporter cells, 10 ng/mL TNFα, 16-18 h, secreted luciferase; read-out: THP-1 IC50
T1 sequence (P19438 30-455): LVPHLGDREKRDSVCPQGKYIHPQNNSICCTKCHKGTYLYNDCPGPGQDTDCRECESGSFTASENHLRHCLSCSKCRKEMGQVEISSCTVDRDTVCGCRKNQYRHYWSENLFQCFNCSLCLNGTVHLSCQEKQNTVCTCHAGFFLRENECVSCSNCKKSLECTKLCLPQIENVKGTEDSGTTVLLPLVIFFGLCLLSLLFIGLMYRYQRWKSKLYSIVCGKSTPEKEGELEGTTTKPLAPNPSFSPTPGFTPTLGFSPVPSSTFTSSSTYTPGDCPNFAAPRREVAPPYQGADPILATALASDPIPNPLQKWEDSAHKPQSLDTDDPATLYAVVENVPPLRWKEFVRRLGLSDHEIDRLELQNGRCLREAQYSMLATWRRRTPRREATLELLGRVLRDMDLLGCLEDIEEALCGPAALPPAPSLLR
In short: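 Inhibition of TNFR1-driven NF-κB activation was measured as luminescence of secreted reporter luciferase following overnight (16-18 h) stimulation with 10 ng/mL TNFα.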

[2] = target: T2, human TNFR1 extracellular domain (ECD) protein (Homo sapiens, UniProt P19438); test: SPR binding affinity to captured human TNFR1 ECD
T2 construct: HRV 3C protease cleavage site (C); 6His (C, cleaved yes); made in house; host or cells: Sf21 insect cells (baculovirus), secreted
T2 sequence (P19438 30-211): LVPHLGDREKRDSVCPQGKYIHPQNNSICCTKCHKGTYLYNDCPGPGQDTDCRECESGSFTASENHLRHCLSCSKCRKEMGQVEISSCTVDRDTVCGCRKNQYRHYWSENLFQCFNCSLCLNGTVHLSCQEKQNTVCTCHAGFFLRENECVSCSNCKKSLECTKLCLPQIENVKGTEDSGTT
In short: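 Read-out: kon, koff and derived affinity from SPR response units. Human TNFR1 and TNFR2 ECD, Avi-tag biotinylated with BirA, captured on a streptavidin surface; peptides injected under laminar flow in HEPES-saline with EDTA, P20 and 2% DMSO.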

Row | Structure (SMILES) | IC50 [1] [nM] | Kd [2] [nM]
1 | CCCC[C@@H]1NC(=O)CSC[C@@H](C(N)=O)NC(=O)[C@](C)(Cc2c[nH]c3ccccc23)NC(=O)CN(C)C(=O)[C@H](Cc2ccc(O)cc2)NC(=O)[C@H](Cc2ccc(C(=O)O)cc2)NC(=O)[C@](C)(CO)NC(=O)[C@H](Cc2c[nH]c3c(Cl)cccc23)NC(=O)[C@H](Cc2ccncc2)NC(=O)[C@H](CC(N)=O)NC(=O)[C@H](CCC(=O)O)N(C)C(=O)[C@H](Cc2c[nH]c3ncccc23)NC(=O)[C@H](CCN)N(C)C(=O)[C@H](Cc2ccncc2)NC1=O [SEQ ID NO. 231] ({CH2CO}-[Nle][4Pal][NMeDab][Trp(7-aza)][NMeE]N[4Pal][Trp(7-Cl)][αMeS][Phe(4-COOH)]Y[Sar][αMeW]C-NH2; thioether N-14) | 6.1 | 1.9
2 | CCN1C(=O)[C@H](Cc2c[nH]c3c(Cl)cccc23)NC(=O)[C@H](CO)NC(=O)[C@H](Cc2ccncc2)NC(=O)[C@H](CC23CC(C2)C3)NC(=O)CSC[C@@H](C(N)=O)NC(=O)[C@H](Cc2c[nH]c3ncccc23)NC(=O)CN(C)C(=O)[C@H](Cc2ccc(O)cc2)NC(=O)[C@H](Cc2ccc(C(=O)O)cc2)NC(=O)[C@](C)(CO)NC(=O)[C@H](Cc2c[nH]c3ncccc23)NC(=O)[C@H](Cc2ccc(C(=O)O)cc2)NC(=O)[C@H](CC(N)=O)NC(=O)[C@@H]1C [SEQ ID NO. 232] ({CH2CO}-[Ala(1-bicyclo(1.1.1)pentyl)][4Pal]S[Trp(7-Cl)][NEtAla]N[Phe(4-COOH)][Trp(7-aza)][αMeS][Phe(4-COOH)]Y[Sar][Trp(7-aza)]C-NH2; thioether N-14) | 6.3 | 0.7
3 | CN1CC(=O)N[C@@H](Cc2c[nH]c3ccccc23)C(=O)N[C@H](C(N)=O)CSCC(=O)N[C@@H](CCc2ccccc2)C(=O)N[C@@H](Cc2ccncc2)C(=O)N[C@@H](CN)C(=O)N[C@@H](Cc2c[nH]c3ccccc23)C(=O)N2CCC[C@@H]2C(=O)N[C@@H](CC(N)=O)C(=O)N[C@@H](Cc2ccncc2)C(=O)N[C@@H](Cc2ccc3ccccc3c2)C(=O)N[C@@](C)(CO)C(=O)N[C@@H](Cc2ccc(C(=O)O)cc2)C(=O)N[C@@H](Cc2cccnc2)C1=O [SEQ ID NO. 233] ({CH2CO}-[hPhe][4Pal][Dap]W[dP]N[4Pal][2Nal][αMeS][Phe(4-COOH)][3Pal][Sar]WC-NH2; thioether N-14) | 14.2 | 0.78
4 | CCCC[C@@H]1NC(=O)CSC[C@@H](C(N)=O)NC(=O)[C@](C)(Cc2c[nH]c3ccccc23)NC(=O)CN(C)C(=O)[C@H](Cc2ccc(O)cc2)NC(=O)[C@H](Cc2ccc(C(=O)O)cc2)NC(=O)[C@](C)(CO)NC(=O)[C@H](Cc2c[nH]c3c(Cl)cccc23)NC(=O)[C@H](Cc2ccncc2)NC(=O)[C@H](CC(N)=O)NC(=O)[C@H](CCC(=O)O)N(C)C(=O)[C@H](Cc2c[nH]c3ncccc23)NC(=O)[C@H](CNC)NC(=O)[C@H](Cc2ccncc2)NC1=O [SEQ ID NO. 235] ({CH2CO}-[Nle][4Pal][Dap(Me)][Trp(7-aza)][NMeE]N[4Pal][Trp(7-Cl)][αMeS][Phe(4-COOH)]Y[Sar][αMeW]C-NH2; thioether N-14) | 5 | 1.2
5 | CN1CC(=O)N[C@@H](Cc2c[nH]c3cccc(Cl)c23)C(=O)N[C@H](C(N)=O)CSCC(=O)N[C@@H](CCC(N)=O)C(=O)N[C@@H](Cc2ccncc2)C(=O)N[C@@H](CO)C(=O)N[C@@H](Cc2c[nH]c3ncccc23)C(=O)N(C)[C@@H](CCC(=O)O)C(=O)N[C@@H](CC(N)=O)C(=O)N[C@@H](Cc2ccncc2)C(=O)N[C@@H](Cc2c[nH]c3c(Cl)cccc23)C(=O)N[C@@](C)(CO)C(=O)N[C@@H](Cc2ccc(C(=O)O)cc2)C(=O)N[C@@H](Cc2ccc(O)cc2)C1=O [SEQ ID NO. 239] ({CH2CO}-Q[4Pal]S[Trp(7-aza)][NMeE]N[4Pal][Trp(7-Cl)][αMeS][Phe(4-COOH)]Y[Sar][Trp(4-Cl)]C-NH2; thioether N-14) | 1.4 | 0.3
6 | CCCC[C@@H]1NC(=O)[C@@H]2CC[C@@H](C2)NC(=O)[C@H]([C@@H](C)c2c[nH]c3c(OC)cccc23)NC(=O)CN(C)C(=O)[C@H](Cc2ccc(OC)cc2)NC(=O)[C@H](Cc2ccc(C(=O)O)cc2)NC(=O)[C@](C)(CO)NC(=O)[C@H](Cc2c[nH]c3c(Cl)cccc23)NC(=O)[C@H](Cc2ccc(C(N)=O)cc2)NC(=O)[C@H](CCC(N)=O)NC(=O)[C@H](CCC(=O)O)N(C)C(=O)[C@H](Cc2c[nH]c3ccccc23)NC(=O)[C@@H]2CNCCN2C(=O)[C@H](Cc2ccncc2)NC1=O [SEQ ID NO. 240] (cyclo([4Pal][Pip(4-aza)]W[NMeE]Q[Phe(4-CONH2)][Trp(7-Cl)][αMeS][Phe(4-COOH)]Y(Me)[Sar][Trp(βS-Me,7-OMe)][X1][Nle])) | 1 | 0.09
7 | CN1CC(=O)N[C@@H](Cc2c[nH]c3ccccc23)C(=O)N[C@H](C(N)=O)CSCC(=O)N[C@@H](CCCCN)C(=O)N[C@@H](Cc2ccc(O)cc2)C(=O)N[C@@H](CO)C(=O)N[C@@H](Cc2c[nH]c3ccccc23)C(=O)N2CCC[C@@H]2C(=O)N[C@@H](CCC(N)=O)C(=O)N[C@@H](Cc2ccncc2)C(=O)N[C@@H](Cc2c[nH]c3ccccc23)C(=O)N[C@@](C)(CO)C(=O)N[C@@H](Cc2ccc(C(=O)O)cc2)C(=O)N[C@@H](Cc2ccc(O)cc2)C1=O [SEQ ID NO. 242] ({CH2CO}-KYSW[dP]Q[4Pal]W[αMeS][Phe(4-COOH)]Y[Sar]WC-NH2; thioether N-14) | 3 | 0.3
8 | CCCC[C@@H]1NC(=O)CSC[C@@H](C(N)=O)NC(=O)[C@H]([C@@H](C)c2c[nH]c3c(OC)cccc23)NC(=O)CN(C)C(=O)[C@H](Cc2ccc(O)cc2)NC(=O)[C@H](Cc2ccc(C(=O)O)cc2)NC(=O)[C@](C)(CO)NC(=O)[C@H](Cc2c[nH]c3c(Cl)cccc23)NC(=O)[C@H](Cc2ccncc2)NC(=O)[C@H](CC(N)=O)NC(=O)[C@H](CCC(=O)O)N(C)C(=O)[C@H](Cc2c[nH]c3ncccc23)NC(=O)[C@H](CO)NC(=O)[C@H]([C@H](C)c2ccc(O)cc2)NC1=O [SEQ ID NO. 243] ({CH2CO}-[Nle][X15]S[Trp(7-aza)][NMeE]N[4Pal][Trp(7-Cl)][αMeS][Phe(4-COOH)]Y[Sar][Trp(βS-Me,7-OMe)]C-NH2; thioether N-14) | 3.2 | 0.06
9 | CCCC[C@@H]1NC(=O)[C@H]2CC[C@H](CC2)NC(=O)[C@H]([C@@H](C)c2c[nH]c3c(OC)cccc23)NC(=O)CN(C)C(=O)[C@H](Cc2ccc(O)cc2)NC(=O)[C@H](Cc2ccc(C(=O)O)cc2)NC(=O)[C@](C)(CO)NC(=O)[C@H](Cc2c[nH]c3c(Cl)cccc23)NC(=O)[C@H](Cc2ccncc2)NC(=O)[C@H](CC(N)=O)NC(=O)[C@H](CCC(=O)O)N(C)C(=O)[C@H](Cc2c[nH]c3ccccc23)NC(=O)[C@H](CO)NC(=O)[C@H](Cc2ccc(CN)cc2)NC1=O [SEQ ID NO. 244] (cyclo([4Pal][Trp(7-Cl)][αMeS][Phe(4-COOH)]Y[Sar][Trp(βS-Me,7-OMe)][Achc(cis-1,4)][Nle][Phe(4-CH2NH2)]SW[NMeE]N)) | 4.5 | 0.09
10 | CCCC[C@@H]1NC(=O)[C@@H]2CC[C@@H](C2)NC(=O)[C@H]([C@@H](C)c2c[nH]c3c(OC)cccc23)NC(=O)CN(C)C(=O)[C@H](Cc2ccc(C(=O)O)cc2)NC(=O)[C@H](Cc2ccc(C(N)=O)cc2)NC(=O)[C@](C)(CO)NC(=O)[C@H](Cc2c[nH]c3c(Cl)cccc23)NC(=O)[C@H](Cc2ccc(C(=O)O)cc2)NC(=O)[C@H](CC(N)=O)NC(=O)[C@H]2C[C@H](O)CN2C(=O)[C@H](Cc2c[nH]c3ccccc23)NC(=O)[C@@H]2CC[C@@H](O)CN2C(=O)[C@H](Cc2ccncc2)NC1=O [SEQ ID NO. 247] (cyclo([4Pal][Pip(5R-OH)]W[dHyp]N[Phe(4-COOH)][Trp(7-Cl)][αMeS][Phe(4-CONH2)][Phe(4-COOH)][Sar][Trp(βS-Me,7-OMe)][X1][Nle])) | 0.5 | 0.07
11 | C[C@H]1C(=O)N[C@@H](CC(N)=O)C(=O)N[C@@H](Cc2ccncc2)C(=O)N[C@@H](Cc2c[nH]c3ccccc23)C(=O)N[C@@](C)(CO)C(=O)N[C@@H](Cc2ccc(C(=O)O)cc2)C(=O)N[C@@H](Cc2ccc(O)cc2)C(=O)N(C)CC(=O)N[C@@H](Cc2c[nH]c3ccccc23)C(=O)N[C@@H]2C=C[C@@H](C2)C(=O)N[C@@H](CCc2ccccc2)C(=O)N[C@@H](Cc2ccncc2)C(=O)N[C@@H](CO)C(=O)N[C@@H](Cc2c[nH]c3ccccc23)C(=O)N1C [SEQ ID NO. 248] (cyclo([4Pal]SW[NMeA]N[4Pal]W[αMeS][Phe(4-COOH)]Y[Sar]W[X4][hPhe])) | 10.6 | 2

From patent US20240287138A1, “CYCLIC PEPTIDES FOR INHIBITING TNF RECEPTOR 1 ACTIVITY” (Merck Sharp & Dohme LLC, priority 2023, published 2024)
